Laboratory results taken from the supplement of paper PMC10307832.

Columns and labels:
Assay in all cases: relative viability (nuclei count vs DMSO), 5 days (fraction); higher = more cells survive
4EGI-1 + Phenformin = compound: O=C(O)C(Cc1ccccc1[N+](=O)[O-])=NNc1nc(-c2ccc(Cl)c(Cl)c2)cs1 (mixture of isomers) [4EGI-1] + N=C(N)NC(=N)NCCc1ccccc1 [Phenformin] (partner 250 µM)
Summary of the method: (§1)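 Relative viability equals treated-well nuclei counts divided by vehicle-well nuclei counts. Counts came from 4× images of lung cancer cell lines grown in 1536-well plates for 5 days after pin-tool dosing on the day after seeding. Dosing used one drug alone or a fixed anchor-drug dose plus five library-drug doses (not always all listed) in √10 steps, and values are medians of duplicate plates.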

XMD8-85 + Navitoclax = compound: CN1CCN(CC1)C2=CC(=C(C=C2)NC3=NC=C4C(=N3)N(C5=CC=CC=C5C(=O)N4C)C)OC [XMD8-85] + CC1(C)CCC(c2ccc(Cl)cc2)=C(CN2CCN(c3ccc(C(=O)NS(=O)(=O)c4ccc(N[C@H](CCN5CCOCC5)CSc5ccccc5)c(S(=O)(=O)C(F)(F)F)c4)cc3)CC2)C1 [Navitoclax] (partner 0.5 µM)
Summary of the method: as §1

XMD8-85 + Bortezomib = compound: CN1CCN(CC1)C2=CC(=C(C=C2)NC3=NC=C4C(=N3)N(C5=CC=CC=C5C(=O)N4C)C)OC [XMD8-85] + CC(C)C[C@H](NC(=O)[C@H](Cc1ccccc1)NC(=O)c1cnccn1)B(O)O [Bortezomib] (partner 0.002 µM)
Summary of the method: as §1

XMD8-85 + Pemetrexed = compound: CN1CCN(CC1)C2=CC(=C(C=C2)NC3=NC=C4C(=N3)N(C5=CC=CC=C5C(=O)N4C)C)OC [XMD8-85] + Nc1nc2[nH]cc(CCc3ccc(C(=O)N[C@@H](CCC(=O)O)C(=O)O)cc3)c2c(=O)[nH]1 [Pemetrexed] (partner 0.2 µM)
Summary of the method: as §1

Cell Line | relative viability (4EGI-1 + Phenformin; first compound 0.5 µM) | relative viability (4EGI-1 + Phenformin; first compound 1.581 µM) | relative viability (4EGI-1 + Phenformin; first compound 5 µM) | relative viability (4EGI-1 + Phenformin; first compound 15.81 µM) | relative viability (4EGI-1 + Phenformin; first compound 50 µM) | relative viability (XMD8-85 + Navitoclax; first compound 0.08 µM) | relative viability (XMD8-85 + Navitoclax; first compound 0.253 µM) | relative viability (XMD8-85 + Navitoclax; first compound 0.8 µM) | relative viability (XMD8-85 + Navitoclax; first compound 2.53 µM) | relative viability (XMD8-85 + Navitoclax; first compound 8 µM) | relative viability (XMD8-85 + Bortezomib; first compound 0.08 µM) | relative viability (XMD8-85 + Bortezomib; first compound 0.253 µM) | relative viability (XMD8-85 + Bortezomib; first compound 0.8 µM) | relative viability (XMD8-85 + Bortezomib; first compound 2.53 µM) | relative viability (XMD8-85 + Bortezomib; first compound 8 µM) | relative viability (XMD8-85 + Pemetrexed; first compound 0.08 µM) | relative viability (XMD8-85 + Pemetrexed; first compound 0.253 µM) | relative viability (XMD8-85 + Pemetrexed; first compound 0.8 µM) | relative viability (XMD8-85 + Pemetrexed; first compound 2.53 µM) | relative viability (XMD8-85 + Pemetrexed; first compound 8 µM)
NCI-H520 | 0.866 | 0.589 | 0.703 | 0.669 | 0.191 | 1.2 | 1.19 | 1.05 | 1.06 | 0.829 | 0.491 | 0.51 | 0.772 | 0.507 | 0.205 | 0.709 | 0.697 | 0.75 | 0.595 | 0.361
NCI-H647 | 0.562 | – | 0.819 | 0.419 | 0.141 | 1.35 | 1.19 | 1.27 | 1.14 | 0.556 | 1.15 | 0.778 | 1.13 | 0.924 | 0.515 | 0.172 | 0.16 | 0.18 | 0.151 | 0.116
201T | 0.456 | 0.475 | 0.427 | 0.45 | 0.428 | 1.2 | 1.24 | 1.26 | 1.19 | 1.08 | 1.08 | 1.06 | 1.1 | 1.07 | 0.917 | 0.329 | 0.329 | 0.368 | 0.325 | 0.288
COR-L 105 | 0.46 | 0.442 | 0.488 | 0.375 | 0.31 | 0.83 | 0.819 | 0.738 | 0.563 | 0.337 | 0.759 | 0.628 | 0.699 | 0.677 | 0.309 | 1.01 | 1.16 | 1.21 | 0.816 | 0.58
IA-LM | – | – | – | – | – | 0.75 | – | 0.763 | 0.641 | 0.185 | 0.814 | – | 0.836 | – | 0.163 | – | – | – | – | –
LCLC-97TM1 | 0.456 | 0.343 | 0.437 | 0.404 | 0.375 | 0.299 | 0.474 | 0.442 | 0.329 | 0.796 | 0.473 | 0.357 | 0.841 | 0.72 | 0.204 | 0.153 | 0.17 | 0.211 | 0.181 | 0.189
NCI-H1944 | 0.206 | – | 0.207 | 0.185 | 0.191 | 1.13 | 1.1 | 1.18 | 1.16 | 1.12 | – | – | – | – | – | 0.517 | 0.72 | 0.638 | 0.615 | 0.639
EPLC-272H | 0.348 | – | 0.302 | 0.273 | 0.158 | – | 1.3 | 1.08 | 1.05 | 0.679 | – | 0.831 | 0.928 | 0.814 | 0.571 | 0.279 | 0.318 | 0.314 | 0.223 | 0.36
NCI-H2342 | 0.582 | 0.588 | 0.716 | 0.641 | 0.522 | – | – | – | – | – | – | – | – | – | – | 0.808 | 0.805 | 0.891 | 0.828 | 0.775
NCI-H1648 | – | – | – | – | – | – | – | – | – | – | – | – | – | – | – | – | 0.693 | 0.826 | 0.765 | 0.692
NCI-H1437 | 0.272 | 0.298 | 0.305 | 0.262 | 0.214 | 1.16 | 1.16 | 1.13 | 0.979 | 0.591 | 0.497 | 0.443 | 0.438 | 0.541 | 0.378 | 0.29 | 0.33 | 0.363 | 0.317 | 0.272
LU99A | 1.03 | 0.595 | 0.924 | 0.885 | 0.391 | 0.857 | 0.689 | 0.888 | 0.892 | 0.44 | 1.11 | 1.21 | 1.18 | 1.23 | 1 | 0.162 | 0.179 | 0.183 | 0.199 | 0.165
NCI-H1993 | 0.536 | 0.452 | 0.481 | 0.631 | 0.5 | 0.848 | – | 0.885 | 0.968 | 0.766 | 0.965 | 0.958 | 1.08 | 1.29 | 1.07 | 0.604 | 0.572 | 0.681 | 0.739 | 0.563
NCI-H838 | 0.605 | – | 0.623 | 0.487 | 0.153 | 1.15 | 1.13 | 1.16 | 1.15 | 0.536 | 0.714 | 0.696 | 1.02 | 0.892 | 0.489 | 0.243 | 0.247 | 0.249 | 0.208 | 0.184
NCI-H322M | 0.794 | – | 0.891 | 0.689 | 0.301 | 1.21 | 1.1 | 1.34 | 1.2 | 1.05 | 1.36 | 1.22 | 1.3 | 1.46 | 1.04 | 0.579 | 0.596 | 0.606 | 0.59 | 0.48
NCI-H3122 | 0.372 | – | 0.378 | 0.33 | 0.169 | 1.08 | 1.01 | 1.09 | 1.06 | 1.1 | 1.11 | 1.02 | 1.05 | 1.05 | 0.915 | 0.178 | 0.201 | 0.203 | 0.213 | 0.172
NCI-H1703 | – | – | – | – | – | 1.02 | 1.18 | 1.23 | 1.13 | 0.983 | 0.28 | 0.267 | 0.306 | 0.345 | 0.196 | – | – | – | – | –
HCC-15 | 0.494 | – | 0.473 | 0.47 | 0.161 | 0.731 | 0.642 | 0.698 | 0.655 | 0.499 | 0.948 | 1 | 1.14 | 1.15 | 0.926 | 0.202 | 0.216 | 0.212 | 0.207 | 0.187
ChaGo-K-1 | 0.447 | 0.439 | 0.543 | 0.49 | 0.351 | 0.788 | 0.983 | 1.02 | 1.13 | 0.421 | 0.905 | 1.07 | 1.18 | 1.37 | 0.357 | 0.276 | 0.268 | 0.26 | 0.248 | 0.232
